Data published in the NIST ThermoML archive (doi:10.1016/j.jct.2013.01.010).

Tests used:
[1] = xn = mol fraction of the nth substance listed; settings: 101 kPa, Liquid; for speed of sound: Sing-around technique in a fixed-path interferometer; for mass density: Vibrating tube method
[2] = excess molar enthalpy (molar enthalpy of mixing); xn = mol fraction of the nth substance listed; settings: 298.15 K, 101 kPa, Liquid, 2-Drop Calorimetry

CCn1cc[n+](C)c1.F[B-](F)(F)F [1-ethyl-3-methylimidazolium tetrafluoroborate] + C[S+](C)[O-]
[1]
Settings | mass density, 293.15 K [kg/m3] | mass density, 298.15 K [kg/m3] | mass density, 303.15 K [kg/m3] | mass density, 308.15 K [kg/m3] | speed of sound, 293.15 K [m/s] | speed of sound, 298.15 K [m/s] | speed of sound, 303.15 K [m/s] | speed of sound, 308.15 K [m/s]
x1 = 0.1319 | 1154.13 | 1149.63 | 1145.2 | 1140.37 | 1533 | 1514.8 | 1498.7 | 1481.3
x1 = 0.1819 | 1170.55 | 1166.13 | 1161.81 | 1157.02 | 1544.4 | 1526.6 | 1510.3 | 1492.8
x1 = 0.2336 | 1185.68 | 1181.3 | 1177.06 | 1172.25 | 1556.2 | 1538.6 | 1522.2 | 1504.7
x1 = 0.2909 | 1200.5 | 1196.12 | 1191.89 | 1187.15 | 1567.8 | 1551 | 1535.1 | 1517.4
x1 = 0.3417 | 1212.05 | 1207.64 | 1203.45 | 1198.76 | 1577.3 | 1561.5 | 1545.4 | 1528.1
x1 = 0.3799 | 1219.83 | 1215.48 | 1211.24 | 1206.59 | 1584 | 1568.7 | 1552.3 | 1535.9
x1 = 0.4215 | 1227.57 | 1223.18 | 1219.02 | 1214.39 | 1589.9 | 1575.8 | 1559.5 | 1543.2
x1 = 0.4719 | 1236 | 1231.61 | 1227.4 | 1222.88 | 1596.3 | 1583.7 | 1567.7 | 1552
x1 = 0.5335 | 1244.97 | 1240.56 | 1236.44 | 1232.02 | 1602.8 | 1591.2 | 1575.8 | 1560.5
x1 = 0.5782 | 1250.68 | 1246.29 | 1242.17 | 1237.86 | 1606.2 | 1595.6 | 1580.4 | 1566.1
x1 = 0.6198 | 1255.44 | 1251.13 | 1247.04 | 1242.76 | 1608.8 | 1598.6 | 1584.3 | 1571
x1 = 0.6717 | 1260.78 | 1256.5 | 1252.45 | 1248.28 | 1611 | 1601.8 | 1588.6 | 1575.9
x1 = 0.7204 | 1265.23 | 1260.99 | 1257 | 1252.91 | 1613 | 1604.4 | 1591.7 | 1579.7
x1 = 0.7737 | 1269.58 | 1265.39 | 1261.48 | 1257.45 | 1614.7 | 1606.4 | 1594.6 | 1583.2
x1 = 0.8219 | 1273.1 | 1268.95 | 1265.1 | 1261.11 | 1616.4 | 1607.9 | 1596.8 | 1586
x1 = 0.8783 | 1276.82 | 1272.74 | 1268.97 | 1264.97 | 1619.2 | 1610.3 | 1599.7 | 1588.9
x1 = 0.9041 | 1278.42 | 1274.36 | 1270.62 | 1266.61 | 1621 | 1611.6 | 1601.1 | 1590.4
x1 = 0.9249 | 1279.65 | 1275.62 | 1271.9 | 1267.87 | 1622.6 | 1612.9 | 1602.2 | 1591.6

[2]
Settings | excess molar enthalpy [kJ/mol]
x1 = 0.1116 | -0.435
x1 = 0.1785 | -0.664
x1 = 0.2157 | -0.802
x1 = 0.2854 | -0.975
x1 = 0.3259 | -1.07
x1 = 0.3981 | -1.18
x1 = 0.4368 | -1.19
x1 = 0.4852 | -1.22
x1 = 0.5111 | -1.22
x1 = 0.5729 | -1.18
x1 = 0.6255 | -1.09
x1 = 0.6899 | -0.971
x1 = 0.7365 | -0.871
x1 = 0.7943 | -0.702
x1 = 0.8338 | -0.573
x1 = 0.8896 | -0.379
x1 = 0.9012 | -0.351
x1 = 0.9258 | -0.259

CCn1cc[n+](C)c1.F[B-](F)(F)F [1-ethyl-3-methylimidazolium tetrafluoroborate] + CC(C)=O
[1]
Settings | mass density, 293.15 K [kg/m3] | mass density, 298.15 K [kg/m3] | mass density, 303.15 K [kg/m3] | mass density, 308.15 K [kg/m3] | speed of sound, 293.15 K [m/s] | speed of sound, 298.15 K [m/s] | speed of sound, 303.15 K [m/s] | speed of sound, 308.15 K [m/s]
x1 = 0.1214 | 933.27 | 928.61 | 923.44 | 918.15 | 1241.1 | 1221 | 1193.4 | 1172.8
x1 = 0.1789 | 987.63 | 983.61 | 978.74 | 973.95 | 1280.4 | 1261.7 | 1233.4 | 1211.1
x1 = 0.2147 | 1017.82 | 1013.85 | 1009.37 | 1004.85 | 1307.6 | 1290.7 | 1262.9 | 1238.4
x1 = 0.2813 | 1066.88 | 1063.3 | 1059.25 | 1055.19 | 1360.4 | 1349.9 | 1321.9 | 1295.2
x1 = 0.3219 | 1092.73 | 1089.56 | 1085.84 | 1082.01 | 1394.1 | 1386.6 | 1358.3 | 1331
x1 = 0.3649 | 1117.49 | 1114.19 | 1110.78 | 1107.15 | 1429.2 | 1423.4 | 1398.5 | 1367.9
x1 = 0.4193 | 1144.91 | 1141.69 | 1138.75 | 1135.16 | 1473.1 | 1469.1 | 1449.6 | 1417.4
x1 = 0.4714 | 1167.62 | 1164.64 | 1161.69 | 1158.46 | 1507.7 | 1510.2 | 1490.7 | 1458.4
x1 = 0.5217 | 1186.9 | 1183.85 | 1181.07 | 1177.84 | 1539.7 | 1539.6 | 1526.3 | 1498
x1 = 0.5772 | 1205.54 | 1202.14 | 1199.7 | 1196.16 | 1566 | 1566.1 | 1559.2 | 1531
x1 = 0.6319 | 1221.27 | 1217.91 | 1215.28 | 1211.72 | 1583 | 1585.4 | 1579.8 | 1558.2
x1 = 0.6768 | 1232.69 | 1229.09 | 1226.6 | 1222.91 | 1593.5 | 1591.6 | 1587.6 | 1574.7
x1 = 0.7199 | 1242.54 | 1238.8 | 1236.06 | 1232.31 | 1601.6 | 1596.9 | 1594 | 1587.8
x1 = 0.7724 | 1252.97 | 1249.12 | 1246.25 | 1242.25 | 1604.7 | 1595.8 | 1592.9 | 1595.8
x1 = 0.8304 | 1263 | 1258.91 | 1255.95 | 1251.74 | 1607.5 | 1595.9 | 1591.6 | 1597.6
x1 = 0.8766 | 1269.84 | 1265.74 | 1262.51 | 1258.3 | 1610 | 1595.9 | 1589.9 | 1597.6
x1 = 0.9011 | 1273.08 | 1268.96 | 1265.71 | 1261.43 | 1612.6 | 1596.6 | 1589.4 | 1597.9
x1 = 0.9203 | 1275.47 | 1271.38 | 1267.99 | 1263.7 | 1614.6 | 1599 | 1591 | 1597.3

[2]
Settings | excess molar enthalpy [kJ/mol]
x1 = 0.0987 | -0.057
x1 = 0.1451 | -0.083
x1 = 0.1991 | -0.114
x1 = 0.2547 | -0.142
x1 = 0.3012 | -0.159
x1 = 0.3428 | -0.177
x1 = 0.3984 | -0.193
x1 = 0.4425 | -0.202
x1 = 0.4851 | -0.208
x1 = 0.5335 | -0.21
x1 = 0.6021 | -0.201
x1 = 0.6689 | -0.19
x1 = 0.7148 | -0.175
x1 = 0.7723 | -0.15
x1 = 0.8227 | -0.121
x1 = 0.8769 | -0.089
x1 = 0.9012 | -0.073
x1 = 0.9113 | -0.067
